Assay results: ChEMBL document CHEMBL1201862, “PubChem BioAssay data set” (2004)
Structures can show the parent of a compound that is named as a salt. Active and inactive are the calls of the source.

Assays:
[1] = Dose-response inhibition of insulin secretion in a rat insulinoma line at 5 mM glucose (AID 1117331); assay type: functional, cell-based; details: INS-1E
[2] = target: T1, Trace amine-associated receptor 1 (Homo sapiens, UniProt Q96RJ0); assay: Fluorescence-based cell-based high throughput dose response assay to identify agonists of the human trace amine associated receptor 1 (TAAR1).; assay type: functional
T1 sequence (Q96RJ0 whole entry): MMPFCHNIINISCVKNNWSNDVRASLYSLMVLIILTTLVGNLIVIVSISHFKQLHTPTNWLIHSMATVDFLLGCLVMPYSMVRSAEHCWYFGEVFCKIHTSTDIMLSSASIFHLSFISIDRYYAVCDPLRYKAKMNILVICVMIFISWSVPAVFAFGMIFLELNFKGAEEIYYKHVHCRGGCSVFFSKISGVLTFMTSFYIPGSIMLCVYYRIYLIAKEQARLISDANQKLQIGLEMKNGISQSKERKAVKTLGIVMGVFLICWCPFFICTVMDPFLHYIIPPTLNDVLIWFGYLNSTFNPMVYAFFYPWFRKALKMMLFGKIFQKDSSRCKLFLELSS

[3] = cells; assay type: functional, cell-based
[4] = cells; assay type: functional, cell-based; details: INS-1E
[5] = target: T1, Trace amine-associated receptor 1; assay: Counterscreen for agonists of the human trace amine associated receptor 1 (hTAAR1): Fluorescence-based cell-based high throughput dose response assay to identify hTAAR1 agonist that also desensitize TAAR1 receptor response.; assay type: functional
[6] = cells; assay type: functional, cell-based; remark: listed apart in the source
[7] = target: DNA (cytosine-5)-methyltransferase 1 (Homo sapiens, UniProt P26358); assay: DNMT1 methyltransferase inhibitors, confirmation, biochemical, fluorescent molecular beacon (AID 602386); assay type: functional
[8] = target: T2, RNA-binding protein pos-1 (Caenorhabditis elegans, UniProt G5EF15); assay: inhibitors of POS-1/mex-3 RNA binding, dose response, biochemical, fluorescence polarization (AID 1964);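 also: purified POS-1 fused to maltose binding protein made in E. coli; potency of compounds blocking POS-1 binding to fluorescent RNA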
T2 sequence (G5EF15 whole entry): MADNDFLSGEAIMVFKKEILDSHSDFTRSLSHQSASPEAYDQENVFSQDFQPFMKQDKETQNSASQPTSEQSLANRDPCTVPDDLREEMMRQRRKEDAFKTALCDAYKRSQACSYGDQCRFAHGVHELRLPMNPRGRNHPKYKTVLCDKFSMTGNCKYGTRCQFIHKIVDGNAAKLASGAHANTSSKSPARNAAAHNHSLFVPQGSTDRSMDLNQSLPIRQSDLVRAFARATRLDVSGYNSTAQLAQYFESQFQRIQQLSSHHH

[9] = target: T3, Zinc finger protein mex-5 (Caenorhabditis elegans, UniProt Q9XUB2); assay: MEX-5/TCR-2 RNA interaction inhibitors, dose response, biochemical, C. elegans, fluorescence polarization (AID 1960)
T3 sequence (Q9XUB2 whole entry): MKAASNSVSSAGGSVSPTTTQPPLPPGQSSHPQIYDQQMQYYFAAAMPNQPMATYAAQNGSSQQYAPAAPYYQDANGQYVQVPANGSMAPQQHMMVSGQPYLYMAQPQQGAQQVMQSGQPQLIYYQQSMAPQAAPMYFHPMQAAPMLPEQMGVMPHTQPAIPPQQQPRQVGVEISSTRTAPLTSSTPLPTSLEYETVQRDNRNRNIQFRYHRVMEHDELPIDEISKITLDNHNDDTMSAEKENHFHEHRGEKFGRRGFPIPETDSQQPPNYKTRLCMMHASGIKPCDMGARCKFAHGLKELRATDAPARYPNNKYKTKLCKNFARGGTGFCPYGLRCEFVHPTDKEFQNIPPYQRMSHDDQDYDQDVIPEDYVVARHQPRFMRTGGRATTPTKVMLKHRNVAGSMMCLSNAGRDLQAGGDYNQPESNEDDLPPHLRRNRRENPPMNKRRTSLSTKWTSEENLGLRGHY

[10] = target: Long-chain-fatty-acid--AMP ligase FadD28 (Mycobacterium tuberculosis, UniProt P9WQ59); assay: Fluorescence polarization aasay to screen for inhibitors that compete for the binding of FadD28 to a bisubstrate Measured in Biochemical System Using Plate Reader - 2147-01_Inhibitor_Dose_CherryPick_Activity.; assay type: functional, Mycobacterium tuberculosis H37Rv
[11] = target: Large T antigen (Simian virus 40, UniProt P03070); assay type: functional, Betapolyomavirus macacae;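 also: Confirmatory-stage PubChem screen for compounds that inhibit SV40 T antigen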
[12] = target: T4, Carboxy-terminal domain RNA polymerase II polypeptide A small phosphatase 1 (Homo sapiens, UniProt Q9GZU7); assay: inhibitors of CTDSP1, concentration-response testing, biochemical assay, absorbance-based, actives from ultra-high-throughput screening (AID 540297); assay type: functional
T4 sequence (Q9GZU7 whole entry): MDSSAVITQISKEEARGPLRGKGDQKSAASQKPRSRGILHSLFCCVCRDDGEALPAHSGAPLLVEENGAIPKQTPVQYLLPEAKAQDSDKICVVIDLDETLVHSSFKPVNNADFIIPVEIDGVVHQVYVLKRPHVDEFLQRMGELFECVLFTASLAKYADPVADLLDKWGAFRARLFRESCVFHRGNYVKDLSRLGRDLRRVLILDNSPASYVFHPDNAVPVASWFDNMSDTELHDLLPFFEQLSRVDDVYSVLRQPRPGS

[13] = target: Bifunctional protein GlmU (Mycobacterium tuberculosis, UniProt P9WMN3); assay: Inhibitors of Mycobacterial Glucosamine-1-phosphate acetyl transferase (GlmU). Secondary screen.; parameters: species or system Mycobacterium tuberculosis H37Rv
[14] = target: NADPH oxidase 1 (Homo sapiens, UniProt Q9Y5S8); assay: Late-stage luminescence-based cell-based dose response assay to identify inhibitors of NADPH oxidase 1 (NOX1): Synthesized analogs.; assay type: functional
[15] = P. falciparum late gametocyte killing, dose response, luminescence (AID 1117278); assay type: functional, cell-based;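 also: gametocytes exposed to compound for 24 hours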
[16] = Jurkat T cell cytotoxicity, dose response, cytotoxicity control for P. falciparum gametocyte viability project, luminescence (AID 1117277); assay type: functional, cell-based;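 also: potency reflects loss of cellular ATP meaning fewer viable cells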
[17] = Vero cell cytotoxicity, dose response, cytotoxicity control for Vif-APOBEC3G degradation inhibitor project, Vero cells (AID 1117358); assay type: functional; details: Human immunodeficiency virus 1, Vero
[18] = growth suppression of beta-catenin-knockout colon cells, dose response, cell-based, HCT116, human colon tumor (AID 1045); assay type: functional;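 also: HCT116 colon tumor cells with beta catenin knocked out; cells exposed to compound for 60 hours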
[19] = inhibitors of firefly luciferase expression or activity, dose response, H4 neuroglioma cells, luminescence (AID 1990); assay type: functional, cell-based
[20] = target: Voltage-dependent T-type calcium channel subunit alpha-1H (Homo sapiens, UniProt O95180); assay type: functional;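 also: channel activity triggered by adding a high calcium stimulation buffer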
[21] = Luminescence Cell-Based Dose Response HTS to Identify Inhibitors of 5'UTR Stem-Loop Driven Prion Protein mRNA Translation in H4 Neuroglioblastoma Cells. [Related pubchem assays: 1827 (Project Summary), 1813 (Primary HTS)]; assay type: functional
[22] = growth suppression of PTEN-null colon cells, dose response, cell-based, HCT116 PTEN knockout (AID 1047); assay type: functional;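 also: HCT116 colon tumor cells with PTEN knocked out; cells exposed to compound for 60 hours before readout; potency for loss of cell viability measured by luminescence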
[23] = inhibitors of SNCA 5'UTR-driven reporter translation, confirmation, H4 neuroglioma cells, luminescence (AID 1988); assay type: functional, cell-based
[24] = P. falciparum 3D7-ScDHODH growth inhibitors, dose response, SYBR Green, dry powder samples (AID 1159570); assay type: functional, cell-based;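 also: parasite growth measured after 72 hours of compound exposure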
[25] = Plasmodium falciparum Dd2 Sybr green parasite growth Measured in Cell-Based and Microorganism Combination System Using Plate Reader - 2153-01_Inhibitor_Dose_DryPowder_Activity_Set3.; assay type: functional
[26] = P. falciparum Dd2 growth inhibitors, dose response, SYBR Green, cherry-picked samples (AID 1159567); assay type: functional, cell-based
[27] = P. falciparum Dd2 growth inhibitors, dose response, SYBR Green, dry powder samples, set 9 (AID 1159568); assay type: functional, cell-based
[28] = P. falciparum Dd2 growth inhibitors, dose response, SYBR Green, dry powder samples (AID 1159566); assay type: functional, cell-based;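 also: potency for growth inhibition with lower SYBR green DNA signal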
[29] = P. falciparum ATP4 D1247Y mutant growth inhibitors, dose response, NITD609-resistant line, SYBR Green, dry powder (AID 1159571); assay type: functional, cell-based;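 also: parasites synchronized at ring stage by sorbitol before testing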
[30] = HepG2 cell cytotoxicity, dose response, cytotoxicity control, plate reader, dry powder samples (AID 1159569); assay type: functional, cell-based;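 also: inhibitor potency with signal falling toward the positive control level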
[31] = HeLa 4N DNA content increase, dose response, cell-based, IC50 (AID 1117351); assay type: functional
[32] = HeLa 2N DNA content increase, dose response, cell-based, IC50 (AID 1117349); assay type: functional
[33] = tested on: Streptococcus; assay: Group A Streptococcus viability loss, dose response, counter-screen for streptokinase expression inhibitor project, luminescence, BacTiterGlo (AID 1915); assay type: functional, organism-based; details: read-out: EC50;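 also: potency for reduction of bacterial viability or growth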
[34] = tested on: Streptococcus sp. 'group A'; assay: growth inhibition of control SK(-) GAS strain, dose response, counter-screen for streptokinase expression inhibitor project, luminescence, kanamycin, BacTiterGlo, confirmation (AID 1900); assay type: functional, organism-based
[35] = half-maximal inhibitory concentration for glucagon-like peptide-1 release, STC-1 cell line, dose-response (AID 1117345); assay type: functional, cell-based
[36] = Glucagon-like peptide 1 release potency, NCI-H716 cell line, dose-response, half-maximal inhibitory concentration (AID 1117344); assay type: functional, cell-based
[37] = A549 cell cytotoxicity, dose response, CellTiter-Glo luminescence, dry powder, set 17 (AID 1117284); assay type: functional, cell-based
[38] = inhibitors of orthopox intermediate gene expression, dose response, cell-based, single fluorophore reporter, dry powder (AID 1117271); assay type: functional
[39] = Single fluorophore orthopox expression reporter, late gene expression Measured in Cell-Based and Microorganism Combination System Using Plate Reader - 2142-08_Inhibitor_Dose_DryPowder_Activity.; assay type: functional
[40] = Orthopox viral replication plaque formation Measured in Cell-Based and Microorganism Combination System Using Imaging - 2142-05_Inhibitor_Dose_DryPowder_Activity.; assay type: functional

Chain of NADPH oxidase 1 (Q9Y5S8 whole entry): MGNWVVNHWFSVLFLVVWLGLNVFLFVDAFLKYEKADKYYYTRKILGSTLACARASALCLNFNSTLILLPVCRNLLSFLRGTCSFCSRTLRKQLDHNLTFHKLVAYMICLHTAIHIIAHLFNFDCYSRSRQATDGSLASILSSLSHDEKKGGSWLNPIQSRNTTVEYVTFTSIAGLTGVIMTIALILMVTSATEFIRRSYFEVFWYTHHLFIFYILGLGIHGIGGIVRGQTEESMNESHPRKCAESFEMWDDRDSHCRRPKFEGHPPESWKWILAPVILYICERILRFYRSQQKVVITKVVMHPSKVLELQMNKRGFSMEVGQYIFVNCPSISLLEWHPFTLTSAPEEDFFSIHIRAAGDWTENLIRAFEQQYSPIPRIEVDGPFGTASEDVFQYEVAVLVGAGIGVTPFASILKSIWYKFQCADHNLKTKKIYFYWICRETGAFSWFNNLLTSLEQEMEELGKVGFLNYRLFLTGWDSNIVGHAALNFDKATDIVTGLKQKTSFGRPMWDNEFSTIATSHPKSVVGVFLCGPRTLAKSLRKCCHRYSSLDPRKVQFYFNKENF
Chain of Long-chain-fatty-acid--AMP ligase FadD28 (P9WQ59 whole entry): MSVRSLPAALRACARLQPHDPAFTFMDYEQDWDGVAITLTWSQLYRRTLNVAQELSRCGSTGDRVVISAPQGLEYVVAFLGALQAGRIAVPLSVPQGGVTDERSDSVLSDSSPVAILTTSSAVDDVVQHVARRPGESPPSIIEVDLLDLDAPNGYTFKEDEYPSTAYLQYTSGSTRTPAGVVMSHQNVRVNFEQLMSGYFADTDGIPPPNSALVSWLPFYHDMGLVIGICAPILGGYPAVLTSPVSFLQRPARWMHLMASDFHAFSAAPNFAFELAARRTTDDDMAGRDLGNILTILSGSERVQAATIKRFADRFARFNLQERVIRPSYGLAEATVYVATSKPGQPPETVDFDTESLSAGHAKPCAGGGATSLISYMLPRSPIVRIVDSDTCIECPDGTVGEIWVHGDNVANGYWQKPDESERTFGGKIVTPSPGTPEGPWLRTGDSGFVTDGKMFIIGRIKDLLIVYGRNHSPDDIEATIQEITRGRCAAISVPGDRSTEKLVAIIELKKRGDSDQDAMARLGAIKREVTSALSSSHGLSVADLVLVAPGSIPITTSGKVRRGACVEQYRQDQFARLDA
Chain of Voltage-dependent T-type calcium channel subunit alpha-1H (O95180 whole entry): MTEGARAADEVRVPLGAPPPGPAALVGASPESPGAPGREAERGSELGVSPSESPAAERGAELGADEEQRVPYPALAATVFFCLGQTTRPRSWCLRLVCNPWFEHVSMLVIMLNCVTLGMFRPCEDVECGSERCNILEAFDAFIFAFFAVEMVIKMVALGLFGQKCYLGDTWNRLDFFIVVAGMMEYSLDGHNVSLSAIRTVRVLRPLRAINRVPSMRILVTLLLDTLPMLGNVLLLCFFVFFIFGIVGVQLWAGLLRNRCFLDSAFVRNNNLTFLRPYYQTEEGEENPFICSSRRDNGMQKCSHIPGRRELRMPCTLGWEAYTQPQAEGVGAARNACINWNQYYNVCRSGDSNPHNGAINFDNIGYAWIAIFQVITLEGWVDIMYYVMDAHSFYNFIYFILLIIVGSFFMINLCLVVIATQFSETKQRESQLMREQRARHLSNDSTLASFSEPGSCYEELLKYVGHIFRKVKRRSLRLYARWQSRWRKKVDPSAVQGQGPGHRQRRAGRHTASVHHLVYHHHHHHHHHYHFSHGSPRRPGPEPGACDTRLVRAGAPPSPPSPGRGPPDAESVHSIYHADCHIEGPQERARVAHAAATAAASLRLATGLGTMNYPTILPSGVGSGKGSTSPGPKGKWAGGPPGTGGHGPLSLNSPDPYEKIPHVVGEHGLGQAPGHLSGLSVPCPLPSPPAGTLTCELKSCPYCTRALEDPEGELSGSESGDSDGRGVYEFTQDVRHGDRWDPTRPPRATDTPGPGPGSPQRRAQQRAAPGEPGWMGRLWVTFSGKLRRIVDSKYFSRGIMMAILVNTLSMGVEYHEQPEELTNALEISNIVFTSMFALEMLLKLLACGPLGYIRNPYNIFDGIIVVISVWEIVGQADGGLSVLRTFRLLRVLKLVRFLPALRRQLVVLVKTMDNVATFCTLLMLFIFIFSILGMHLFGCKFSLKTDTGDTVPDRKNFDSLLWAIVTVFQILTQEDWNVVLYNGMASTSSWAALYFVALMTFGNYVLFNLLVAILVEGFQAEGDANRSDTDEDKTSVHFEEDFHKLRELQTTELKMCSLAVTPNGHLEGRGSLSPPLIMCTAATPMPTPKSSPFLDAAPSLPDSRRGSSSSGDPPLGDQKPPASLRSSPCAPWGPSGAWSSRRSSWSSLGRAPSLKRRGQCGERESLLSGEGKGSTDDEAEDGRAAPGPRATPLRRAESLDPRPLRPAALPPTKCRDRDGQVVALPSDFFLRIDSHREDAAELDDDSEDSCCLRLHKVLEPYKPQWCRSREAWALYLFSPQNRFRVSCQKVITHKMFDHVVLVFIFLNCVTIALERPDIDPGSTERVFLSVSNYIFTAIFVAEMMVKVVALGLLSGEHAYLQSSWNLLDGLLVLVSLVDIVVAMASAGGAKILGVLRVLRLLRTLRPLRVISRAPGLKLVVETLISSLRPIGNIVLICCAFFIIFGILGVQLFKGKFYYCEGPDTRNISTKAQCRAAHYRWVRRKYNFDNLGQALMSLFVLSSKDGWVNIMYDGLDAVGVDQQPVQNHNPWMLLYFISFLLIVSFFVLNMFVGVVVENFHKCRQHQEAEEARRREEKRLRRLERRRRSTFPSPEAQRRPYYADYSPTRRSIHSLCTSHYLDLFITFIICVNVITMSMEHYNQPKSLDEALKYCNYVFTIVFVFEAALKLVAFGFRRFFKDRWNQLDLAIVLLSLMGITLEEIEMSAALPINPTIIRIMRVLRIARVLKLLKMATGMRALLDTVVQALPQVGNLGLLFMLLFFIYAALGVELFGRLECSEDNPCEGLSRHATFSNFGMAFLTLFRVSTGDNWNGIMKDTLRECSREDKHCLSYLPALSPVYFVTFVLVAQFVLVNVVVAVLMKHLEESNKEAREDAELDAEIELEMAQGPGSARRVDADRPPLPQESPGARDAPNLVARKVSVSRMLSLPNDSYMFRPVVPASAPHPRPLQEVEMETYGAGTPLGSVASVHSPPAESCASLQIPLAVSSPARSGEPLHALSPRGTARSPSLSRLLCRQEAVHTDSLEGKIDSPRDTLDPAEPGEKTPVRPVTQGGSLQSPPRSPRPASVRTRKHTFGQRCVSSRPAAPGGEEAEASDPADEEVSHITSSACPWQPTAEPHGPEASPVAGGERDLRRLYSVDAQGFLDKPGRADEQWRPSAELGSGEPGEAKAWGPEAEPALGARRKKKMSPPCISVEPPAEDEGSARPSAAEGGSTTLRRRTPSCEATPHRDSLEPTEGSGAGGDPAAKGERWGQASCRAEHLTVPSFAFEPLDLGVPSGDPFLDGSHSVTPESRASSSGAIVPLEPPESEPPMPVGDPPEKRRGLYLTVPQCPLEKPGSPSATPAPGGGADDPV
Chain of Bifunctional protein GlmU (P9WMN3 whole entry): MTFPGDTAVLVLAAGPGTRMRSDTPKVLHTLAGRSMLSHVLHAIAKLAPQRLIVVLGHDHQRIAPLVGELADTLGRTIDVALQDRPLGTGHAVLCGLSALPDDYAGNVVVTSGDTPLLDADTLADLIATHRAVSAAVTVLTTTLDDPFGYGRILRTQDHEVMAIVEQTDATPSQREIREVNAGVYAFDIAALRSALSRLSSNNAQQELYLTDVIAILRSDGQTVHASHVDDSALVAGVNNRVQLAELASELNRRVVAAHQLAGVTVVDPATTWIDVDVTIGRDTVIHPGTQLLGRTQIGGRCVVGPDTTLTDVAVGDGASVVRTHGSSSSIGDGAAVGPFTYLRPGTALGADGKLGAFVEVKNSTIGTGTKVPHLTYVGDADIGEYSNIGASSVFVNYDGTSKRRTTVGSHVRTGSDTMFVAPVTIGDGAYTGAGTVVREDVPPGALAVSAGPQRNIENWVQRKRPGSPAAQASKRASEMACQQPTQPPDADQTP
Chain of Large T antigen (P03070 whole entry, the tested form may be a part): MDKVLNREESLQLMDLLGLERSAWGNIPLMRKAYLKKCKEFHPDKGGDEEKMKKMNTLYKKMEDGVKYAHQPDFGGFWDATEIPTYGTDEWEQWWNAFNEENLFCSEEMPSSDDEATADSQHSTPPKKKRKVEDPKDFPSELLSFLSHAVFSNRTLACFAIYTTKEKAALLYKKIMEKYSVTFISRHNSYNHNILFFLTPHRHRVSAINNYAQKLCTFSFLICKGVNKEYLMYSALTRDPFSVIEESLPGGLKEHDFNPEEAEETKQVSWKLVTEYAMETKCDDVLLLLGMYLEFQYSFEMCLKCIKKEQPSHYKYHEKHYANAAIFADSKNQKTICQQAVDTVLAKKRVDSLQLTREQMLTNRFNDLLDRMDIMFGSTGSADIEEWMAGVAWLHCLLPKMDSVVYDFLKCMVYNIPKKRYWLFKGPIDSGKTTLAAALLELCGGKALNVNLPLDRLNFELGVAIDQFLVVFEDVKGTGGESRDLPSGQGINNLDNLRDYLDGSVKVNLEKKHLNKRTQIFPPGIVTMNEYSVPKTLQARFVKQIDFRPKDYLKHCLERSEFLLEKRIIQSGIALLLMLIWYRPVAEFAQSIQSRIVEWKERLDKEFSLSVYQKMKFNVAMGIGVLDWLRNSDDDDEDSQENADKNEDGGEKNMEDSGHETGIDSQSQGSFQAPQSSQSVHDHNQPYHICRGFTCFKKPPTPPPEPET

N[C@@H]1C[C@H]1c1ccccc1 [TRANYLCYPROMINE HYDROCHLORIDE]
inactive: IC50 [1] > 33.3 µM | IC50 [3] > 29.9 µM | IC50 [4] > 33.3 µM | EC50 [6] > 29.9 µM
active: EC50 [2] 611 nM | IC50 [5] 2.1 µM

Cc1ccc(NC(=O)CN2C(=O)N/C(=C\c3cccn3-c3cccc(C(=O)O)c3)C2=O)cc1
active: IC50 [7] 6.05 µM | EC50 [9] 54 µM | AC50 [10] 28 µM | IC50 [11] > 100 µM | IC50 [12] 2.2 µM | IC50 [13] 103 µM
> 300 µM (not active): EC50 [8]

CCN1c2ccccc2S(=O)(=O)c2ccccc21
> 50 µM (not active): IC50 [14]

O=C1N[C@@H](c2ccccc2)COC(=O)[C@@H](Cc2ccc(F)cc2)C/C=C\C[C@H]1CC(=O)N(CCO)Cc1ccccc1
inactive: IC50 [15] > 109 µM | IC50 [16] 37.8 µM

CCN(Cc1ccccc1)S(=O)(=O)c1ccc(C(=O)Nc2nnc(C3CC3)o2)cc1
active: CC50 [17] 20.2 µM | EC50 [18] 8.9 µM | EC50 [20] 13.7 µM | EC50 [21] 12.6 µM | EC50 [22] 9.37 µM | EC50 [23] 25.3 µM
> 120 µM (not active): EC50 [19]

CCCN1C[C@H](C)[C@@H](OC)CN(C)C(=O)c2cc(NC(=O)Nc3cccc(F)c3)ccc2OC[C@H]1C
active: AC50 [24] 15.2 µM | AC50 [25] 2 µM | AC50 [26] 2.11 µM | AC50 [27] 1.61 µM | AC50 [28] 469 nM | AC50 [29] 2.47 µM | AC50 [30] 42.2 µM

CCCCCCNC(=O)n1cc(F)c(=O)[nH]c1=O [CARMOFUR]
inactive: IC50 [31] > 10 µM | IC50 [32] > 10 µM

Clc1ccc(CO/N=C(\Cn2ccnc2)c2ccc(Cl)cc2Cl)c(Cl)c1 [OXICONAZOLE NITRATE]
active: EC50 [33] 3.82 µM | EC50 [34] 1.92 µM
inactive: IC50 [35] > 40 µM | IC50 [36] > 40 µM

Cc1cccc(-c2ccc(CN(C)C[C@@H]3Oc4cc(C#C[C@@H](C)O)ccc4S(=O)(=O)N([C@@H](C)CO)C[C@@H]3C)cc2)c1
active: AC50 [37] 35.5 µM | AC50 [38] 1.85 µM | AC50 [39] 1.48 µM | AC50 [40] 150 nM
